Counter-ions that a name gives are not always drawn. Like-named read-outs stand apart in the source and are kept apart here.

Data set [1] is described as follows: Miscibility and stability in matrix and application. The note with it: for miscibility and stability properties compared to DPG: fragrance oil matrix and Eau de Toilette (at 10%). The text has this: The miscibility and stability of the solvent mixture of the present invention was compared with those of DPG and the pure mixture ingredients. The miscibility with isopropyl myristate (IPM) and ethylene brassylate (EB) mimics the miscibility with a fragrance oil matrix.

A short description of data set [2]: Solubility by absorption spectrometry (absorbance at 600 nm, 1 cm path).
Procedure: (§1) If the sample is dissolved, there is low absorbance (close to zero), any turbidity (>0.5) indicates incomplete solution.
Data set [3] is described as follows: Solubility by visual inspection.
Procedure: as §1
Data set [4] can be described thus: Vanillin solubility in other solvents. The format is physicochemical.
Data set [5] in a line: Solubility and storage stability of fragrance ingredients in TEC/1,3-butylene glycol 80/20 mixture. Format: physicochemical. The note with it: for solubility: t = 0, 5 min. heating at 50° C. + 8-10 hrs. stirring at room temperature. The protocol:
In the table above, the solubility of single ingredients solubility has been summarized. […] Furthermore, the storage stability at 5 and 60° C. for 14 days have been tested.

The mark [6] stands for this setting: 10% in EDT premix, 14 days 5° C.
[7] abbreviates: 10% in EDT premix, t = 0 at room temperature.
Where [8] appears, read: 1% in 1,3-butylene glycol (*), sample heated and cooled down to room temperature.
Where [9] appears, read: 1% in 1:3 MIX (*), sample heated and cooled down to room temperature.
[10] abbreviates: 1% in 3:1 MIX (*), sample heated and cooled down to room temperature.
Where [11] appears, read: 1% in TEC (*), sample heated and cooled down to room temperature.
[12] abbreviates: 10% in 1,3-butylene glycol (*), sample heated and cooled down to room temperature.
The mark [13] stands for this setting: 10% in 1:1 MIX (*), sample heated and cooled down to room temperature.
The mark [14] stands for this setting: 10% in 1:3 MIX (*), sample heated and cooled down to room temperature.
[15] abbreviates: 10% in 3:1 MIX (*), sample heated and cooled down to room temperature.
The mark [16] stands for this setting: 10% in TEC (*), sample heated and cooled down to room temperature.

Consider `CCOC(=O)CC(O)(CC(=O)OCC)C(=O)OCC` [TEC, Triethyl citrate], for which the “miscibility and stability rating” value is on record as “clear” in data set [1] (3% in EDT premix, 24 h UV); “clear” in data set [1] (3% in EDT premix, 14 days 5° C.); “clear” in data set [1] (3% in EDT premix, 14 days −10° C.); “clear” in data set [1] (3% in EDT premix, t = 0 at room temperature); “clear” in data set [1] (5% in EDT premix, 24 h UV); “clear” in data set [1] (5% in EDT premix, 14 days 5° C.). Also, the “miscibility and stability rating” value in data set [1] (5% in EDT premix, 14 days −10° C.) is listed as “clear”; in data set [1] (5% in EDT premix, t = 0 at room temperature), “clear”; in data set [1] (10% in EB, 24 h UV), “clear”; in data set [1] (10% in EB, 14 d 60° C.), “clear”; in data set [1] (10% in EB, 14 days 5° C.) it was “clear”; in data set [1] (10% in EDT premix, 24 h UV), “clear”. The “miscibility and stability rating” value in data set [1] (10% in EDT premix, 14 d 60° C.) is on record as “clear”; in data set [1] (setting [6]), “clear”; in data set [1] (10% in EDT premix, 14 days −10° C.), “clear”; in data set [1] (setting [7]), “clear”; in data set [1] (10% in IPM, 24 h UV), “clear”; in data set [1] (10% in IPM, 14 d 60° C.), “clear”. Moreover, the “miscibility and stability rating” value in data set [1] (10% in IPM, 14 days 5° C.) is recorded as “clear”. In addition, the “miscibility and stability properties compared to DPG” value in data set [1] is “show disadvantages when compared to DPG”.

`CCOc1cc(C=O)ccc1O` [Ethyl Vanilline, 3-Ethoxy-4-hydroxybenzaldehyde]: the “ultrasonic bath, spectrometer” value came to 0.00 AU (30 %) and 0.04 AU (40 %).

As to `Cc1occc(=O)c1O` [Maltol Lg Crist, 3-hydroxy-2-methyl pyran-4-one], the “ultrasonic bath, spectrometer” value in data set [2] (setting [8]) is reported as “solid”; in data set [2] (setting [9]), 0.02 AU; in data set [2] (setting [10]), 0.02 AU; in data set [2] (setting [11]) it was “solid”. Also, the visual inspection result was “non soluble” in data set [3] (setting [8]), “soluble” in data set [3] (setting [9]), “soluble” in data set [3] (setting [10]) and “non soluble” in data set [3] (setting [11]).

Regarding `N#CC(=C1CCCCC1)c1ccccc1` [Peonile, 2-cyclohexylidene-2-phenylacetonitrile], the “ultrasonic bath, spectrometer” value in data set [2] (10% in 1,3-butylene glycol) was >2 AU; in data set [2] (10% in 1:1 MIX), 0.00 AU; in data set [2] (10% in 1:3 MIX), 0.02 AU; in data set [2] (10% in 3:1 MIX), 0.02 AU; in data set [2] (10% in TEC), 0.02 AU. Further, the visual inspection result was “non soluble” in data set [3] (10% in 1,3-butylene glycol); “soluble” in data set [3] (10% in 1:1 MIX); “soluble” in data set [3] (10% in 1:3 MIX); “soluble” in data set [3] (10% in 3:1 MIX); “soluble” in data set [3] (10% in TEC).

For the molecule `O=c1ccc2ccccc2o1` [Coumarine Pure Crist, 1-benzopyran-2-one], the “ultrasonic bath, spectrometer” value in data set [2] (setting [12]) was determined as 0.06 AU; in data set [2] (setting [13]) it was 0.05 AU; in data set [2] (setting [14]) it was 0.00 AU; in data set [2] (setting [15]) it was 0.02 AU; in data set [2] (setting [16]), 0.07 AU. The visual inspection entry in data set [3] (setting [12]), in data set [3] (setting [13]), in data set [3] (setting [14]), in data set [3] (setting [15]) and in data set [3] (setting [16]) was “soluble” in each case.

For the molecule `COc1cc(C=O)ccc1O` [vanillin, 4-hydroxy-3-methoxybenzaldehyde], the “amount that can be dissolved” value was “about 20%” in data set [4] (in DPG, when saturation occurs); “less than 15%” in data set [4] (in triethylcitrate (TEC)); “at least 25%” in data set [5] (in the solvent mixture of the present invention). For the same molecule, the solubility entry in data set [5] (15% in MIX 80/20), in data set [5] (20% in MIX 80/20) and in data set [5] (25% in MIX 80/20) was “Solubility OK” throughout.

On to `CC(O)CCO` (centres unmarked) [1,3-butylene glycol], for which the “miscibility and stability rating” value was “clear” in data set [1] (10% in EDT premix, 24 h UV); “clear” in data set [1] (setting [6]); “clear” in data set [1] (setting [7]); “biphasic, hazy” in data set [1] (10% in IPM, 14 days 5° C.); “clear” in data set [1] (pure, 14 days 5° C.). Besides, the “miscibility and stability properties compared to DPG” value in data set [1] is recorded as “show disadvantages when compared to DPG”.
